Reference: ChEMBL document CHEMBL1201862, “PubChem BioAssay data set” (2004)
Activity calls are given as the source filed them.

How the values were obtained:
[1] = target: Albumin (Bos taurus, UniProt P02769); test: Counterscreen for inhibitors of T-cell receptor (TCR)-CD3 interaction: Fluorescence-based biochemical high throughput dose response assay to identify inhibitors of T-cell receptor (TCR)-CD3 interaction using a TAMRA-labeled BSA probe.; assay type: functional
[2] = HEK293T cell cytotoxicity, dose response, cytotoxicity control for HIV Vif inhibitor project, cherry-picks (AID 652208); assay type: functional, cell-based
[3] = tested on: HEK293; test: cells; conditions: Homo sapiens
[4] = target: Induced myeloid leukemia cell differentiation protein Mcl-1 (Homo sapiens, UniProt Q07820); assay type: functional
Chain of Induced myeloid leukemia cell differentiation protein Mcl-1 (Q07820 whole entry): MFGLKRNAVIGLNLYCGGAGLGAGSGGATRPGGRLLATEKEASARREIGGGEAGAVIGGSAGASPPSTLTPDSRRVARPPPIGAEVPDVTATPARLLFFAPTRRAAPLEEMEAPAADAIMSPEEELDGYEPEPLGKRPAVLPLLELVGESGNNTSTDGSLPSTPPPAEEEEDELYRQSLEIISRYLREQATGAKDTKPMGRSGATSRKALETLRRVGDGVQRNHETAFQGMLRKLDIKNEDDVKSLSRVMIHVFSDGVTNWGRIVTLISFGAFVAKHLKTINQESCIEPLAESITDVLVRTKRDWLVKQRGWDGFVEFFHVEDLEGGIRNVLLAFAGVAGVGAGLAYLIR

[5] = target: T1, Protein RecA (Mycobacterium tuberculosis, UniProt P9WHJ3); test: Fluorescence Cell-Free Homogeneous Dose Retest to Identify Inhibitors of RecA-Intein Splicing Activity. [Related pubchem assays (depositor defined):AID2097, AID2223, AID489010, AID492950]; assay type: functional
T1 sequence (P9WHJ3 whole entry): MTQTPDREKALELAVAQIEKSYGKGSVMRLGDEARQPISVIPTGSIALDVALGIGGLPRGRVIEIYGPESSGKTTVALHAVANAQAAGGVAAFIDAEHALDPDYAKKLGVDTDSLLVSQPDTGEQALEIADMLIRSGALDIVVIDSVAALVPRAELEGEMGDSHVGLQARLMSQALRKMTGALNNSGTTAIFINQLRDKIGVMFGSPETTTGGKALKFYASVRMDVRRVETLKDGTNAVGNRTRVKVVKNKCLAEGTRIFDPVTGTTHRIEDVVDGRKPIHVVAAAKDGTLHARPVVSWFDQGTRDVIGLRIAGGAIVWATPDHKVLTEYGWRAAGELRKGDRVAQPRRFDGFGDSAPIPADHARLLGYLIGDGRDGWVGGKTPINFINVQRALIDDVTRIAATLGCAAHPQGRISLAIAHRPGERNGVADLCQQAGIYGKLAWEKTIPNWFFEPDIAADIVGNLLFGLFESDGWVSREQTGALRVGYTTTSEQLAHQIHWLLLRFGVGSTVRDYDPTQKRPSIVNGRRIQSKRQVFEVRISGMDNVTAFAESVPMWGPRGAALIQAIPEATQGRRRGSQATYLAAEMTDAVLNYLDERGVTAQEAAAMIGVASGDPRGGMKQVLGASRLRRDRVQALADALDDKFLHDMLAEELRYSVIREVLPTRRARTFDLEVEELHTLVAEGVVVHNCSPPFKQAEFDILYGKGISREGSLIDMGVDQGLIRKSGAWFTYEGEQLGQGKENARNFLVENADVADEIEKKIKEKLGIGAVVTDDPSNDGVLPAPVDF

[6] = target: T2, Replicative DNA helicase DnaB (Mycobacterium tuberculosis, UniProt P9WMR3); test: DnaB intein splicing inhibitors, dose response, biochemical, cell-free fluorescence (AID 449749); assay type: functional
T2 sequence (P9WMR3 whole entry): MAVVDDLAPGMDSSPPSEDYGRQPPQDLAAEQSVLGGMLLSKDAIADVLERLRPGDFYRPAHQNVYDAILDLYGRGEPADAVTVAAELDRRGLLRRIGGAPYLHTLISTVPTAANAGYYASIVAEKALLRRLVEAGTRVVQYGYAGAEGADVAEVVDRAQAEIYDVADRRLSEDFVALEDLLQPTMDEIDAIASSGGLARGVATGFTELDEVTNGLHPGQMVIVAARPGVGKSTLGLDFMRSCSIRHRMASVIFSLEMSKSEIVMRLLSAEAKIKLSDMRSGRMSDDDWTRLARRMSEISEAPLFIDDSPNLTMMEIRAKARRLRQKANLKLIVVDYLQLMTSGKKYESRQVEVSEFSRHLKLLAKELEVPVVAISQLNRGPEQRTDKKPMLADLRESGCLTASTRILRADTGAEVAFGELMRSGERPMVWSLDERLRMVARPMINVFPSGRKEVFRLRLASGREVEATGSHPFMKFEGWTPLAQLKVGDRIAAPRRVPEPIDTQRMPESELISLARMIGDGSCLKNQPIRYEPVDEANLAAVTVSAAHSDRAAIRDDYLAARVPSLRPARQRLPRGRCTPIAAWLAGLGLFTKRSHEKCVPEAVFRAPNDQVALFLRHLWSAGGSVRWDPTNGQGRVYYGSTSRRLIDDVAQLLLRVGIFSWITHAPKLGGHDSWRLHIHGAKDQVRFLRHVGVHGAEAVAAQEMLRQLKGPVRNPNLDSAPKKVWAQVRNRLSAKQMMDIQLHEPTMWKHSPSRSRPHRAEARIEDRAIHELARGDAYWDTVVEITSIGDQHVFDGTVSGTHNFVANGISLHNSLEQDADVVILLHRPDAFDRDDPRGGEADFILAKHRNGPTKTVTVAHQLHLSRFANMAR

[7] = growth suppression of PTEN-null colon cells, dose response, cell-based, HCT116 PTEN knockout (AID 1047); assay type: functional;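 note: HCT116 colon tumor cells with PTEN knocked out; cells exposed to compound for 60 hours before readout; potency for loss of cell viability measured by luminescence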
[8] = growth suppression of beta-catenin-knockout colon cells, dose response, cell-based, HCT116, human colon tumor (AID 1045); assay type: functional;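 note: HCT116 colon tumor cells with beta catenin knocked out; cells exposed to compound for 60 hours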
[9] = tested on: HEK293; test: cells; conditions: Homo sapiens; remark: listed apart in the source
[10] = NIH-3T3 fibroblast cytotoxicity, dose response, cytotoxicity control, cell-based, fluorescence, Alamar Blue, secondary assay (AID 2327); assay type: functional;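 note: NIH-3T3 mouse fibroblasts cultured with fluconazole at 8 µg/mL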
[11] = target: T3, Polyadenylate-binding protein 1 (Homo sapiens, UniProt P11940); test: PABP1 MLLE–PAM2 binding inhibitor potency, dose response, biochemical, fluorescence polarization, FITC-PAM2 peptide (AID 602259); assay type: functional; conditions: read-out: IC50_Mean
T3 sequence (P11940 whole entry): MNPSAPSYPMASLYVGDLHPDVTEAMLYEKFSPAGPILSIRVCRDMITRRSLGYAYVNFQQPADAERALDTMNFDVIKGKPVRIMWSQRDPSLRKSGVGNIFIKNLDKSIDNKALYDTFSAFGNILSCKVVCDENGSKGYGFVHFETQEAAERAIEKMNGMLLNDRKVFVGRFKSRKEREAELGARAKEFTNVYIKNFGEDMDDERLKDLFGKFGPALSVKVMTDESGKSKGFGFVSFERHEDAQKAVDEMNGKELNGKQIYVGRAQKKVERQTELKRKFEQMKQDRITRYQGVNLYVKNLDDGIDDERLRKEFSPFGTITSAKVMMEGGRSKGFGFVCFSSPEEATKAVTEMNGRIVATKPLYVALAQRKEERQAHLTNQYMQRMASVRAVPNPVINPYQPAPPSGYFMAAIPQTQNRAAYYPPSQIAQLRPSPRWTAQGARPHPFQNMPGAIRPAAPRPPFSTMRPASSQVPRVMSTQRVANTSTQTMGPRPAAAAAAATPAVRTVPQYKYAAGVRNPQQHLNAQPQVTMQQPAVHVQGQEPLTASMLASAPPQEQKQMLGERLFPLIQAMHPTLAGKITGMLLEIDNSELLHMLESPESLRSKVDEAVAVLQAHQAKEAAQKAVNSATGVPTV

[12] = target: Heat shock protein HSP 90-alpha (Homo sapiens, UniProt P07900); assay type: functional, organism-based
[13] = target: T4, Streptokinase A (Streptococcus pyogenes serotype M1, UniProt P10520); test: S. pyogenes streptokinase expression inhibitors, potency, dose response, plasminogen activation absorbance, OD405 (AID 1914); assay type: functional, Streptococcus pyogenes M1 GAS;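 note: secreted streptokinase activity via plasminogen activation per viability signal from cell pellet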
T4 sequence (P10520 whole entry): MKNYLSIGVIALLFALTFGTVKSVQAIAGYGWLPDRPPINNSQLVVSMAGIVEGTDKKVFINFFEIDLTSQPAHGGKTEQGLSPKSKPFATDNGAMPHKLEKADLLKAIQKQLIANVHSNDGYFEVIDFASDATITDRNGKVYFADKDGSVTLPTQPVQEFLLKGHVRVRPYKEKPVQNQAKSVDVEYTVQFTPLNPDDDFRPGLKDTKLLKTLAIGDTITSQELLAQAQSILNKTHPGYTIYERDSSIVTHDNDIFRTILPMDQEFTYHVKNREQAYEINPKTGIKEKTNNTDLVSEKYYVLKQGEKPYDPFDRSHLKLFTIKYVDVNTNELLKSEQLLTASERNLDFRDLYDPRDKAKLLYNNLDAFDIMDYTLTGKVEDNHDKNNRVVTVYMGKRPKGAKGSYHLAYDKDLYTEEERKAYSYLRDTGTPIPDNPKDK

[14] = HepG2 cell cytotoxicity, dose response, cytotoxicity control for Shn3 inhibitor project, CellTiter-Glo, cherry-picked (AID 624134); assay type: functional, cell-based
[15] = target: T3, Polyadenylate-binding protein 1; test: PABP1 MLLE–PAM2 interaction inhibitors, dose response, miRNA deadenylation inhibitor project, biochemical, fluorescence polarization, Cy5-PAM2 peptide, secondary (AID 602260); assay type: functional; conditions: read-out: IC50_Mean
[16] = tested on: Streptococcus sp. 'group A'; test: growth inhibition of control SK(-) GAS strain, dose response, counter-screen for streptokinase expression inhibitor project, luminescence, kanamycin, BacTiterGlo, confirmation (AID 1900); assay type: functional, organism-based
[17] = control 3'UTR Renilla luciferase suppression, dose response, counter-screen for Shn3 inhibitor project, cell-based, Clone20-Shn3RL, cherry-picked (AID 624133); assay type: functional
[18] = Shn3 3'UTR reporter inhibitors, dose response, cell-based, Clone20 osteoblasts, firefly luciferase, cherry-picked (AID 624132); assay type: functional;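 note: firefly luciferase luminescence from reporter carrying the Shn3 3'UTR in osteoblasts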
[19] = tested on: Streptococcus; test: Group A Streptococcus viability loss, dose response, counter-screen for streptokinase expression inhibitor project, luminescence, BacTiterGlo (AID 1915); assay type: functional, organism-based;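 note: potency for reduction of bacterial viability or growth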
[20] = C. albicans growth with fluconazole, confirmation, fluorescence, retest (AID 2467); assay type: functional, cell-based
[21] = cells; assay type: functional, cell-based
[22] = target: T5, Trace amine-associated receptor 1 (Homo sapiens, UniProt Q96RJ0); test: Counterscreen for agonists of the human trace amine associated receptor 1 (hTAAR1): Fluorescence-based cell-based high throughput dose response assay to identify hTAAR1 agonist that also desensitize TAAR1 receptor response.; assay type: functional
T5 sequence (Q96RJ0 whole entry): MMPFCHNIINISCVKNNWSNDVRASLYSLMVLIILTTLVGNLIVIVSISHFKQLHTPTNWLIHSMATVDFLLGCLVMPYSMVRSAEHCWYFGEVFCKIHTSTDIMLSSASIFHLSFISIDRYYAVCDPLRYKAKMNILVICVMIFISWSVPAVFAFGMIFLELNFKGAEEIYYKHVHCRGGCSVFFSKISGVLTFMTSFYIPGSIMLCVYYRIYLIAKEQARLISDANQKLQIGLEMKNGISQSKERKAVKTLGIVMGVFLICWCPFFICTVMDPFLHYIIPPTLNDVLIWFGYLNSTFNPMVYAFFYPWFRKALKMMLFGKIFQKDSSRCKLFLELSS

[23] = cells; assay type: functional, cell-based; remark: listed apart in the source
[24] = target: T5, Trace amine-associated receptor 1; test: Fluorescence-based cell-based high throughput dose response assay to identify agonists of the human trace amine associated receptor 1 (TAAR1).; assay type: functional
[25] = target: Large T antigen (Simian virus 40, UniProt P03070); assay type: functional, Betapolyomavirus macacae;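 note: Confirmatory-stage PubChem screen for compounds that inhibit SV40 T antigen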
Chain of Large T antigen (P03070 whole entry): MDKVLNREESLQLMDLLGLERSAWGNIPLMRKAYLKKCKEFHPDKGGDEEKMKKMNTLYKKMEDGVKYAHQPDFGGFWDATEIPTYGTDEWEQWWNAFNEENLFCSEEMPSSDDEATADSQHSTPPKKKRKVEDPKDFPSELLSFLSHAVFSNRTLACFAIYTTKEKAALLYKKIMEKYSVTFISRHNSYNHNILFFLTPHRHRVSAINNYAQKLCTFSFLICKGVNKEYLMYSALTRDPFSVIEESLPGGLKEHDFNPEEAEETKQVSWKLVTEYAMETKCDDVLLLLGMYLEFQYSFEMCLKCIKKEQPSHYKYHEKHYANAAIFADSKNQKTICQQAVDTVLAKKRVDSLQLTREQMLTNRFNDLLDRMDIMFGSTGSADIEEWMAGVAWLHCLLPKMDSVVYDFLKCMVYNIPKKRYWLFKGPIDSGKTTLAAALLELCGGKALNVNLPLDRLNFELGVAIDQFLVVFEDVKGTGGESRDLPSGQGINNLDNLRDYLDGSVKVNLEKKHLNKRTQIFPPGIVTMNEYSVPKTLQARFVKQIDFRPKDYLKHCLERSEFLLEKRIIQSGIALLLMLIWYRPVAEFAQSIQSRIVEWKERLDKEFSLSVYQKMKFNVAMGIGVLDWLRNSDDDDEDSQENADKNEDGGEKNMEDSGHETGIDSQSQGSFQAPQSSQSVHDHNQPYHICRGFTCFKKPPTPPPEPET

[26] = target: T6, Sentrin-specific protease 1 (Homo sapiens, UniProt Q9P0U3); test: potency of human SENP1 inhibitors, dose response, biochemical, kinetic FRET (AID 651697); assay type: functional; conditions: read-out: IC50_Mean
T6 sequence (Q9P0U3 whole entry): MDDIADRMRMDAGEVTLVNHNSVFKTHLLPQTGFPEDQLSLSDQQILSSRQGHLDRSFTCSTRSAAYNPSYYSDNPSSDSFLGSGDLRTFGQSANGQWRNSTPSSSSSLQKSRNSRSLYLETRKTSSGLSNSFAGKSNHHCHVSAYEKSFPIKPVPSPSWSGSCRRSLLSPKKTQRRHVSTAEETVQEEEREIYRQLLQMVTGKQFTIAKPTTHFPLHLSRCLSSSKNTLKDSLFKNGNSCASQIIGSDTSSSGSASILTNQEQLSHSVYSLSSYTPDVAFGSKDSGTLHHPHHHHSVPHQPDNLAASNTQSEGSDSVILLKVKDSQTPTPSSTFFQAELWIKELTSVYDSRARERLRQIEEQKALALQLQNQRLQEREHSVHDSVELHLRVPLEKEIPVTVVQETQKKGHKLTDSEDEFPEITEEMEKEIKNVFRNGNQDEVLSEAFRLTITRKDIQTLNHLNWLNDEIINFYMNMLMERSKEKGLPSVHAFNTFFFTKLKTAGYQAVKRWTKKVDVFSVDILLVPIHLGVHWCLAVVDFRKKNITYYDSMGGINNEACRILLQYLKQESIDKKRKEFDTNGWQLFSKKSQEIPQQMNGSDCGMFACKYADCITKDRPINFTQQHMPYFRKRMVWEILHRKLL

[27] = target: T6, Sentrin-specific protease 1; test: Dose response confirmation of small molecule inhibitors of the catalytic domain of the SUMO protease, SENP1 in a FRET assay.; assay type: functional; conditions: read-out: IC50_Mean
[28] = target: T7, Endoribonuclease toxin MazF (Escherichia coli K-12, UniProt P0AE70); test: MazF toxin RNase activators, dose response, biochemical, fluorescence, single-stranded RNA substrate, uHTS hits (AID 588481); assay type: functional
T7 sequence (P0AE70 whole entry): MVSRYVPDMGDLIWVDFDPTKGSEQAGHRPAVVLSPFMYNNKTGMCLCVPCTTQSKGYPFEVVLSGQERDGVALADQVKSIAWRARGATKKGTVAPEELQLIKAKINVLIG

[29] = target: T7, Endoribonuclease toxin MazF; test: fluorescent RNA oligo signal without MazF, dose response, counter-screen for MazEF activator project, biochemical, fluorescence, single-stranded RNase substrate (AID 588502); assay type: functional

Chain of Albumin (P02769 whole entry): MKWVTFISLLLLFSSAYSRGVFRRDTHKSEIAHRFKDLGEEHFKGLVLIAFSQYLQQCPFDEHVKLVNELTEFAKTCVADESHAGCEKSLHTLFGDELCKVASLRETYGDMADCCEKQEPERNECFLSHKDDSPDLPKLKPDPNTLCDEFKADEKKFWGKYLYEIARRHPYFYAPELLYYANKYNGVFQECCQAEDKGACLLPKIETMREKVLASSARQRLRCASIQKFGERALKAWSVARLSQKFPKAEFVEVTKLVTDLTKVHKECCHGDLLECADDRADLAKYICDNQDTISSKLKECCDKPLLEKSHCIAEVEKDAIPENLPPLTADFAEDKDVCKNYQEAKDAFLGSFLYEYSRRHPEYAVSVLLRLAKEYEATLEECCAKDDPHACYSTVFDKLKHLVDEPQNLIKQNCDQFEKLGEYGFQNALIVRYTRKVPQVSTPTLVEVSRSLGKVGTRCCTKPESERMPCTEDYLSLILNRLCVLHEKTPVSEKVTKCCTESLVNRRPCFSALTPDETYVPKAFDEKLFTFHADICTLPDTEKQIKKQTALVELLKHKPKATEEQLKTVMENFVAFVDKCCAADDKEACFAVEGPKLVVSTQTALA

CCC1=NN(C(=O)c2cccc([N+](=O)[O-])c2)C(O)(c2ccc(C)cc2)C1 (stereo unspecified)
IC50 [1]: > 94.1 µM (inactive)

COc1ccc(NC(=O)Cn2ncc(Cl)c(Cl)c2=O)cc1S(=O)(=O)N1CCOCC1
AC50 [2]: 10.8 µM (active)
EC50 [3]: > 59.6 µM (inactive)
IC50 [4]: 6.5 µM (active)
EC50 [5]: 10.1 µM (active)
AC50 [6]: 44.2 µM (active)
EC50 [7]: 7.27 µM (active)
EC50 [8]: 5.71 µM (active)
EC50 [9]: > 59.6 µM (inactive)

Cc1ccc(C(c2cc(Cl)c3cccnc3c2O)N2CCN(C)CC2)cc1 (stereo unspecified)
EC50 [10]: 3.84 µM (inconclusive)
IC50 [11]: > 66 µM (inactive)
AC50 [2]: > 52 µM (inactive)
AC50 [12]: 1.59 µM (active)
EC50 [5]: 1.96 µM (active)
EC50 [13]: > 150 µM (not active)
AC50 [14]: 35.2 µM (active)
AC50 [6]: > 380 µM (inactive)
IC50 [15]: > 66 µM (inactive)
EC50 [16]: 1.49 µM (active)
AC50 [17]: 16.4 µM (active)
AC50 [18]: 5.54 µM (active)
EC50 [19]: 15.3 µM (active)
EC50 [20]: 374 nM (active)

CCCOC1CCCN(C(=O)c2cc(Cl)c(Cl)cc2C(=O)O)C1 (stereo unspecified)
IC50 [21]: > 29.9 µM (inactive)
IC50 [22]: > 29.9 µM (inactive)
EC50 [23]: > 29.9 µM (inactive)
EC50 [24]: 8.64 µM (active)

CC(C)(C)OC(=O)N/N=C/c1ccc(N2CCOCC2)s1
IC50 [25]: 13.2 µM (active)
IC50 [26]: 8.28 µM (active)
IC50 [27]: 11.9 µM (active)
EC50 [28]: > 99 µM (inactive)
EC50 [29]: 46.9 µM (inactive)

C/C(=N\CCc1ccccc1)C1=C(O)CCC1=O
IC50 [21]: > 29.9 µM (inactive)
IC50 [22]: 8.63 µM (active)
EC50 [23]: > 29.9 µM (inactive)
EC50 [24]: 1.94 µM (active)
